Assay results from patent US12697330B2, “Therapeutic methods using vadadustat” (Akebia Therapeutics, Inc., priority 2021, dated 2026).

Test system: erythropoietin (EPO)
Assay: Phase 1b study: pharmacodynamics, Baseline-unadjusted serum EPO concentration
Format: in vivo, human
Procedure: PK and EPO Sample. For each vadadustat treatment group, blood samples for vadadustat PK (and its metabolites) and EPO were collected at the following time points: Day 1: predose, and at 1, 2, 3, 4, 5, 8, and 11 hours post dose; Day 2: 24 hours (−2 hours) post Day 1 dose; Day 6: blood sample for EPO analysis only was collected predose on Day 6; Day 8: predose, and at 1, 2, 3, 4, 5, 8, 11 hours post dose, Day 10 or EOT: predose. For the ESA treatment group, blood samples for analysis of EPO were collected at the following time points: Day 1: predose, and at 0.25, 1, 2, 3, 4, 5, 8, and 11 hours post dose; Day 2: 24 hours (−2 hours) post Day 1 dose.
PD Sampling. For all vadadustat and ESA treatment groups, in addition to EPO, blood samples for Hb, reticulocytes and iron indices for PD analyses were collected on Day 1, Day 6 and Day 10. Hepcidin were collected predose on Day 1, Day 6, and Day 10 for PD analysis.
Secondary Endpoints. For each treatment group, PD parameters included, but were not limited to, as deemed appropriate: hepcidin, erythropoietin (EPO), iron indices (iron, ferritin, total iron-binding capacity [TIBC], TSAT), Hb, and reticulocytes.
The summary of serum concentration of Baseline-unadjusted EPO by time for the vadadustat treatment groups in the PK population are presented in FIGS. 1a-11b and FIGS. 12a-12b. The summary of PD parameters for Baseline-unadjusted serum EPO concentration for vadadustat treatment groups by dosing days for the PK population are summarized in Table 2.

SMILES	Baseline-Unadjusted serum EPO Tmax, Median (Vada 600 mg QD, Day 1)	Baseline-unadjusted serum EPO AUC0-11, Mean (SD) (Vada 600 mg QD, Day 1)	Baseline-Unadjusted serum EPO Tmax, Median (Vada 600 mg QD, Day 8)	Baseline-unadjusted serum EPO AUC0-11, Mean (SD) (Vada 600 mg QD, Day 8 (AUClast))	Baseline-Unadjusted serum EPO Tmax, Median (Vada 750 mg QD, Day 1)	Baseline-unadjusted serum EPO AUC0-11, Mean (SD) (Vada 750 mg QD, Day 1)	Baseline-Unadjusted serum EPO Tmax, Median (Vada 750 mg QD, Day 8)	Baseline-unadjusted serum EPO AUC0-11, Mean (SD) (Vada 750 mg QD, Day 8 (AUClast))	Baseline-Unadjusted serum EPO Tmax, Median (Vada 900 mg QD, Day 1)	Baseline-unadjusted serum EPO AUC0-11, Mean (SD) (Vada 900 mg QD, Day 1)	Baseline-Unadjusted serum EPO Tmax, Median (Vada 900 mg QD, Day 8)	Baseline-unadjusted serum EPO AUC0-11, Mean (SD) (Vada 900 mg QD, Day 8 (AUClast))	EPO response (600, 750, 900 mg QD, Day 1 and Day 8)	EPO after administration versus dose (Day 8)
O=C(O)CNC(=O)c1ncc(-c2cccc(Cl)c2)cc1O [Compound 1, {[5-(3-chlorophenyl)-3-hydroxypyridine-2-carbonyl]amino}acetic acid]	10.09 h	319 (150) h · mU/mL	4.50 h	410 (286) h · mU/mL	10.94 h	569 (623) h · mU/mL	5.01 h	677 (533) h · mU/mL	10.00 h	455 (438) h · mU/mL	10.00 h	981 (1854) h · mU/mL	–	–
O=C(O)CNC(=O)c1ncc(-c2cccc(Cl)c2)cc1O [vadadustat, {[5-(3-chlorophenyl)-3-hydroxypyridine-2-carbonyl]amino}acetic acid]	–	–	–	–	–	–	–	–	–	–	–	–	variable EPO response	dose-dependent increase of EPO
